Reference: US5683987A, “Therapeutic oligonucleotides targeting the human MDR1 and MRP genes” (The Board of Regents of the University of Nebraska, priority 1995, dated 1997)
Where “and” joins values, the source holds several entries; their conditions need not be identical. Identical values can stand only once. Like-named read-outs stand apart in the source and are kept apart here.

Assays:
[1] = tested on: 8226/Dox4 human myeloma cells; assay: Vincristine IC50 summary after MDR-oligo treatment; format: cell-based; conditions: oligo 0.2 μM; compared to media control
Description: (§1) In vitro testing of MDR-Oligonucleotides was done on the multidrug-resistant (MDR+) RPMI-8226/Dox4 human multiple myeloma cell line (gift of Dr. William Dalton, Univ. Arizona Cancer Ctr., Tucson). Cells were incubated in vitro for 4 days at 37° C. with MDR-oligos at 0.2 μM final concentration; pulsed 18 hr with serial 5-fold dilutions of chemotherapeutic drug (vincristine) from 1×10^-4 M to 2×10^-10 M. Cells were then washed, and incubated for an additional 4 days. Tritiated thymidine (^3 H-TdR) was added for last 18 hr to measure status of cellular proliferation. Controls included MDR^+ 8226 cells similarly treated with vincristine but pretreated either with (a) control ODNs, or (b) culture medium only.

8226/Dox4 cells = assay: Parsimonious regression model estimates of count and Vincristine IC50; format: cell-based, human; conditions: for Estimated Mean Count (cpm): 3H-TdR count at VCR Dose = 0, oligo alone, media only 159,500; for Fold Increase in drug sensitivity: compared to corresponding oligo control (no drug)
Description: as §1
The following mathematical/statistical model was used to analyze the effects of oligos and various drug treatments on targeted tumor cells in these studies. The model is based on experiments which generally involve treatment of tumor cells with one of several ODNs or media only, and with several dose levels of an anti-cancer agent (such as, for example, vincristine (VCR)) or media only. Analysis goals were to model the relationship of cell kill to the dose of VCR (for example), and to compare the effects of the various ODNs.
This final model contained 10 regressor variables.
Various estimates of parameters from the parsimonious model are shown in TABLE 13, which contains the model estimate of the count for each ODN with media only; differences here (when compared to "media only" [no ODN]) reflect the cell kill associated with the ODN alone. TABLE 13 also contains an estimate of IC50 values, the dose of vincristine (VCR) which is estimated to produce an expected count which is exactly half that expected with "media only" [no VCR]. While formal statistical comparisons of the IC50 values of the various ODNs is not possible, an ordering of the ODNs by estimated IC50 values is possible.

[2] = tested on: A427 human non-small-cell lung adenocarcinoma cell line; assay: Sensitization of A427 lung cancer cells to etoposide by MRP-oligos; format: cell-based
Description: The human non-small-cell lung adenocarcinoma cell line A427 was treated with oligos at various concentrations for 4 days in vitro. The cells then were pulsed with various concentrations of etoposide (range 1.6×10^-4 to 1×10^-6 M) for 3 hrs. Next, cells were trypsinized and seeded by volume into 96-well plates with 12 replicates per treatment condition. Three days later, tritiated thymidine was added and the cells harvested the next day.

8226/Dox cells [3] = assay: Sensitization of 8226/Dox cells to VCR by MDR-aptameric oligonucleotides; format: cell-based, human; conditions: compared to media control
[4] = tested on: CEM/VLB10 human leukemia cells; assay: Sensitization of CEM/VLB10 cells to Vincristine by MDR-oligos in 5% oxygen; format: cell-based; conditions: 5% oxygen; for IC50: Vincristine IC50 after 4 days with 10 μM oligo, read-out: IC50 dose; for Relative sensitization (fold increase): to Vincristine, 10 μM oligo
Description: (§2) As shown in this example, several oligos which target the MDR1 gene are able to sensitize multidrug-resistant cell lines to the cytotoxic effects of the chemotherapeutic agent Vincristine. Tumor cells were treated in vitro with 10 μM of the indicated oligo for 4 days at 37° C., then counted, dispensed into individual tubes, and pulsed with Vincristine at various doses (serial 5-fold dilutions) for 3 hrs. The cells were then washed and seeded into 96-well plates (quadruplicate replicates) for pulsing with tritiated thymidine 3 days later. Cells were harvested the next day (=4th day after drug treatment). Tritiated thymidine uptake was analyzed by liquid scintillation.

8226/Dox cells [5] = assay: Sensitization of 8226/Dox cells to Vincristine by an MRP-oligo and MDR-ODNs; format: cell-based, human; conditions: for IC50: Vincristine IC50 after oligo treatment, conditions as Example 2, read-out: IC50 dose; for Relative sensitization (fold increase): to Vincristine, vs medium only
Description: as §2
In this example, experimental conditions were identical to those utilized in obtaining the data in Example 2.

[6] = tested on: 8226/Dox human myeloma cells; assay: Sensitivity of 8226/Dox cells to Vincristine with increasing time after Vincristine exposure; format: cell-based; conditions: for Relative Sensitization (fold increase) Day 5: Day 5 after Vincristine exposure; for Relative Sensitization (fold increase) Day 7: Day 7 after Vincristine exposure; for Relative Sensitization (fold increase) Day 9: Day 9 after Vincristine exposure
Description: as §2, with “Tumor cells were treated in vitro with 10 μM of the indicated oligo for 4 days at 37° C., then counted, dispensed into individual tubes, and pulsed with Vincristine at various doses (serial 5-fold dilutions) for 3 hrs.” left out
As shown in this example, it was determined that there was an increase in sensitivity of multidrug-resistant 8226/Dox human myeloma cells to Vincristine with increasing time of incubation following initial exposure to Vincristine. The experimental conditions were identical to those utilized in obtaining the data shown in Table 7, except that the present experiment had two additional time points.

[7] = tested on: 8226/Dox human myeloma cells; assay: Sensitization of 8226/Dox cells to Vincristine by MDR-oligos in 5% oxygen; format: cell-based; conditions: 5% oxygen; for IC50: Vincristine IC50 after 4 days with 10 μM oligo, read-out: IC50 dose; for Relative sensitization (fold increase): to Vincristine, 10 μM oligo
Description: as §2

OL(12B)mdr: SEQ ID NO 14: CGCGCTCCGG GCAACATG (CGCGCTCCGGGCAACATG; chemistry not given here)
Fold-Increase in sensitivity to drug treatment [1]: 40 fold | Estimated Mean Count (cpm) (8226/Dox4 cells): 159,500 cpm | Fold Increase in drug sensitivity (8226/Dox4 cells): 17.3 fold

SJ(34A)mdr: SEQ ID NO 6: TCGAATGAGC TCAGGCTT (TCGAATGAGCTCAGGCTT; chemistry not given here)
Fold-Increase in sensitivity to drug treatment [1]: > 7500 fold | Estimated Mean Count (cpm) (8226/Dox4 cells): 100,300 cpm | Fold Increase in drug sensitivity (8226/Dox4 cells): 188 fold

SJ(34)mdr: SEQ ID NO 5: TCGAATGAGC TCAGGCTTCC (TCGAATGAGCTCAGGCTTCC; chemistry not given here)
Fold-Increase in sensitivity to drug treatment [1]: 293 fold

COc1cc([C@@H]2c3cc4c(cc3[C@@H](O[C@@H]3O[C@@H]5CO[C@@H](C)O[C@H]5[C@H](O)[C@H]3O)[C@H]3COC(=O)[C@H]23)OCO4)cc(OC)c1O [Etoposide (VP-16), etoposide, reference compound]
IC50 ([2]; Homo sapiens, A-427, read-out: Etoposide (VP-16) IC50, Media Control (no oligo)): 36000 nM | IC50 ([2]; read-out: Etoposide (VP-16) IC50, Media Control (no oligo)): 50000 nM and 60000 nM

MDR-APT-3: MDR-aptameric oligonucleotide, SEQ ID NO 90: CGGTCCGTTA TGTTCCTG (CGGTCCGTTATGTTCCTG; chemistry not given here)
Fold Increase in Drug Sensitization (8226/Dox cells [3]): 5,714 fold

SJ(36)mdr: SEQ ID NO 39: CCAGGGCTTCTTGGACAACCTA (CCAGGGCTTCTTGGACAACCTA; chemistry not given here)
IC50 [4]: 160 nM | Relative sensitization (fold increase) [4]: 62 fold increase

OL(2)mdr: SEQ ID NO 35: GCAACCAGCA CCCCAGCACC (GCAACCAGCACCCCAGCACC; chemistry not given here)
IC50 [4]: 160 nM | Relative sensitization (fold increase) [4]: 62 fold increase | IC50 (8226/Dox cells [5]): 300 nM | Relative sensitization (fold increase) (8226/Dox cells [5]): 3.7 fold increase

5(3)MRP: SEQ ID NO 42: CGGCGGCGGCGGCGCAGGGAGCCGGG (CGGCGGCGGCGGCGCAGGGAGCCGGG; chemistry not given here)
Etoposide (VP-16) Relative Sensitization (fold increase) ([2]; oligo 10 μM): 5 fold increase

5(2)MRP: SEQ ID NO 43: CGGTGGCGCGGGCGGCGGCGGGCACC (CGGTGGCGCGGGCGGCGGCGGGCACC; chemistry not given here)
Etoposide (VP-16) Relative Sensitization (fold increase) ([2]; oligo 10 μM): 6 fold increase

OL(4)MRP: SEQ ID NO 76: CGATGCCGAC CTTTTCTCC (CGATGCCGACCTTTTCTCC; chemistry not given here)
Etoposide (VP-16) Relative Sensitization (fold increase) ([2]; oligo 1 μM): 3 fold increase

OL(10)mdr: SEQ ID NO 11: GCTCCCAGCT TTGCGTGCCC (GCTCCCAGCTTTGCGTGCCC; chemistry not given here)
Fold-Increase in sensitivity to drug treatment [1]: 40 fold

SJ(34C)mdr: SEQ ID NO 8: AGCTCAGGCT TCCTGTGGCA (AGCTCAGGCTTCCTGTGGCA; chemistry not given here)
Fold-Increase in sensitivity to drug treatment [1]: 2182 fold

OL(3)MRP: SEQ ID NO 62, position 2848: CCCTGGACCG CTGACGCCCG (CCCTGGACCGCTGACGCCCG; chemistry not given here)
Etoposide (VP-16) Relative Sensitization (fold increase) ([2]; oligo 10 μM): 5 fold increase

OL(5)mdr: SEQ ID NO 21: TCTGGACTTT GCCCGCCGCC (TCTGGACTTTGCCCGCCGCC; chemistry not given here)
IC50 [4]: 150 nM | Relative sensitization (fold increase) [4]: 67 fold increase

OL(6A)mdr: SEQ ID NO 2: GTGCTCAGCC CACGCCCCGG (GTGCTCAGCCCACGCCCCGG; chemistry not given here)
IC50 (8226/Dox cells [5]): 88 nM | Relative sensitization (fold increase) (8226/Dox cells [5]): 12.5 fold increase

OL(3)mdr: SEQ ID NO 37: TGCCCACCAG AGCCAGCGTC (TGCCCACCAGAGCCAGCGTC; chemistry not given here)
IC50 [4]: 200 nM | Relative sensitization (fold increase) [4]: 50 fold increase | IC50 (8226/Dox cells [5]): 100 nM | Relative sensitization (fold increase) (8226/Dox cells [5]): 11 fold increase

OL(12A)mdr: SEQ ID NO 13: CGCGCTCCGGGCAACATGGTCC (CGCGCTCCGGGCAACATGGTCC; chemistry not given here)
Fold-Increase in sensitivity to drug treatment [1]: 375 fold | Estimated Mean Count (cpm) (8226/Dox4 cells): 159,500 cpm | Fold Increase in drug sensitivity (8226/Dox4 cells): 414 fold

OL(5)MRP: SEQ ID NO 48: CTGCGGCCCG GAAAACATCA (CTGCGGCCCGGAAAACATCA; chemistry not given here)
Etoposide (VP-16) Relative Sensitization (fold increase) ([2]; oligo 10 μM): 6 fold increase

OL(2)MRP: SEQ ID NO 49: CGGTGATGCT GTTCGTGCCC (CGGTGATGCTGTTCGTGCCC; chemistry not given here)
Etoposide (VP-16) Relative Sensitization (fold increase) ([2]; oligo 10 μM): 2.4 fold increase

OL(12)mdr: SEQ ID NO 12: GCGCGCTCCG GGCAACATGG (GCGCGCTCCGGGCAACATGG; chemistry not given here)
Fold-Increase in sensitivity to drug treatment [1]: 200 fold | Estimated Mean Count (cpm) (8226/Dox4 cells): 159,500 cpm | Fold Increase in drug sensitivity (8226/Dox4 cells): 233 fold

PA(1)mdr: SEQ ID NO 40: GCGGGAGGTGAGTCACTGTCTCC (GCGGGAGGTGAGTCACTGTCTCC; chemistry not given here)
Relative Sensitization (fold increase) Day 5 ([6]; oligo 2 μM): 2.3 fold increase | Relative Sensitization (fold increase) Day 7 ([6]; oligo 2 μM): 27 fold increase | Relative Sensitization (fold increase) Day 9 ([6]; oligo 2 μM): 1309 fold increase | Relative Sensitization (fold increase) Day 5 ([6]; oligo 10 μM): 6.3 fold increase | Relative Sensitization (fold increase) Day 7 ([6]; oligo 10 μM): 28 fold increase | Relative Sensitization (fold increase) Day 9 ([6]; oligo 10 μM): 550 fold increase | IC50 [7]: 28 nM | Relative sensitization (fold increase) [7]: 16 fold increase | IC50 [4]: 190 nM | Relative sensitization (fold increase) [4]: 53 fold increase

OL(14)MRP: SEQ ID NO 44: GCGGGTCGGA GCCATCGGCG (GCGGGTCGGAGCCATCGGCG; chemistry not given here)
Etoposide (VP-16) Relative Sensitization (fold increase) ([2]; oligo 10 μM): 3 fold increase

OL(6)MRP: SEQ ID NO 60: GGGCCAGGCT CACGCGCTGC (GGGCCAGGCTCACGCGCTGC; chemistry not given here)
Etoposide (VP-16) Relative Sensitization (fold increase) ([2]; oligo 10 μM): 8 fold increase

5(1)mdr: SEQ ID NO 10: CCCTACCTCGCGCTCCTTGGAACGGC (CCCTACCTCGCGCTCCTTGGAACGGC; chemistry not given here)
Relative Sensitization (fold increase) Day 5 ([6]; oligo 2 μM): 3.4 fold increase | Relative Sensitization (fold increase) Day 7 ([6]; oligo 2 μM): 26.9 fold increase | Relative Sensitization (fold increase) Day 9 ([6]; oligo 2 μM): 724 fold increase | Relative Sensitization (fold increase) Day 5 ([6]; oligo 10 μM): 2.1 fold increase | Relative Sensitization (fold increase) Day 7 ([6]; oligo 10 μM): 20.5 fold increase | Relative Sensitization (fold increase) Day 9 ([6]; oligo 10 μM): 423 fold increase | IC50 [7]: 180 nM | Relative sensitization (fold increase) [7]: 2.5 fold increase | IC50 [4]: 90 nM | Relative sensitization (fold increase) [4]: 111 fold increase

CO[C@@H]1[C@@H](OC(N)=O)[C@@H](O)[C@H](Oc2ccc3c(O)c(NC(=O)c4ccc(O)c(CC=C(C)C)c4)c(=O)oc3c2C)OC1(C)C [Novobiocin, novobiocin, reference compound]
Etoposide (VP-16) Relative Sensitization (fold increase) ([2]; novobiocin used at the same time as VP-16): 5.0 fold increase | Etoposide (VP-16) Relative Sensitization (fold increase) ([2]; novobiocin used at the same time as VP-16, listed as novobiocin): about 5 fold increase
